Columns and labels:
[1] = Pharmacokinetics following PO administration to dogs, Study A (oxycodone in plasma)
[2] = target: T1, trypsin from bovine pancreas (Bos taurus, UniProt P00760); test: In vitro trypsin-mediated prodrug cleavage; assay type: biochemical
T1 construct: purchased Sigma-Aldrich T8003; host or cells: bovine pancreas
T1 sequence (P00760 24-246): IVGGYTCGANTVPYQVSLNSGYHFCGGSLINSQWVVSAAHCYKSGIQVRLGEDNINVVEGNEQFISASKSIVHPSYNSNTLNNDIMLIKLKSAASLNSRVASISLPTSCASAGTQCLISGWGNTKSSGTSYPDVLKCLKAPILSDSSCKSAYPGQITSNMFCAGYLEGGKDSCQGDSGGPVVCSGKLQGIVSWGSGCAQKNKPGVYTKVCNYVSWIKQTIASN
Experimental: (§1) The reactions were conducted at 37° C. for 24 h.
(§2) Table 3 indicates the results of exposure of Compound KC-8 to trypsin. […] Table 3 also indicates the cyclization rate of the cyclizable spacer leaving group of Compound KC-22. The results are expressed as half-life of compound disappearance.

[3] = target: T2, trypsin (Bos taurus, UniProt P00760); test: In vitro trypsin-mediated prodrug cleavage; assay type: biochemical, bovine; details: bovine, trypsin from bovine pancreas; 0.761 mM KC-8•2HCl, Tris pH 8, 37° C.; footnote: adjusted to 4815 BAEE U/mL trypsin
T2 construct: purchased Sigma-Aldrich T8003; host or cells: bovine pancreas
T2 sequence (P00760 24-246): T1 sequence (P00760 24-246)
Experimental: as §1, §2

[4] = Pharmacokinetics of Compound KC-8 following PO administration to dogs, Study B; assay type: in vivo, dog; details: 4.55 to 18.2 mg/kg
Experimental: Compound KC-8 was also dosed to dogs in a separate experiment at the doses indicated in Table 2B, and samples were collected at various times over a 48-h period. Otherwise, the procedures were the same as that described for Study A.

[5] = Spacer leaving group cyclization release rate in phosphate buffer; assay type: physicochemical; details: 2.18 mM initial, 50 mM pH 7.4 phosphate buffer, 20° C.
Text: as §2

[6] = male, beagle, dog, plasma, po, 2 mg/kg

For “N-1-[2-(oxycodone-6-enol-carbonyl-methyl-amino)-ethylamine]-arginine-malonic acid [Compound KC-3]”, the “OC Cmax ± sd” value ([1]; oxycodone in dog plasma, 4.15 mg/kg ([…]) PO, LLOQ […]) was 10.2 ± 3.3 ng/mL and the “AUC ± sd 0-24 h” value ([1]; oxycodone in dog plasma, 4.15 mg/kg PO) was 65.6 ± 22 ng·h/mL.
With COc1ccc2c3c1O[C@H]1C(OC(=O)N(C)CC(C)(C)CNC(=O)[C@H](CCCNC(=N)N)NC(=O)CNC(=O)CC(=O)O)=CC[C@@]4(O)[C@@H](C2)N(C)CC[C@]314 [Compound KC-8, N-1-[3-(oxycodone-6-enol-carbonyl-methyl-amino)-2,2-dimethyl-propylamine]-arginine-glycine-malonic acid] the OC formation rate ([2]; 0.761 mM KC-8•2HCl, Tris pH 8, 37° C.) was 0.296 ± 0.044 μmol/h/BAEE U, the cleavage by trypsin ([2]; in vitro) was “can be cleaved by trypsin” and the half-life at 0.761 mM [3] was 11.3 ± 0.48 min. For the same compound, the “oral PK profile in dogs” value [4] was “reproducible oral PK profile in dogs that is dose proportional”, the “oxycodone PK profile compared to administration of oxycodone” value ([1]; dogs, PO) was “suppressed oxycodone Cmax, delayed oxycodone Tmax and extended oxycodone exposure time (AUC)” and the “release of oxycodone into dog plasma compared to Compound KC-3” value ([1]; dogs, PO) was “significantly enhanced release of oxycodone into dog plasma (higher Cmax and AUC)”.
COc1ccc2c3c1O[C@H]1C(OC(=O)N(C)CC(C)(C)CN)=CC[C@@]4(O)[C@@H](C2)N(C)CC[C@]314 [Compound KC-22, N-1-[3-(oxycodone-6-enol-carbonyl-methyl-amino)-2,2-dimethyl-propylamine]] showed a Disappearance half-life [5] of 624 ± 0.36 min.
Compound COc1ccc2c3c1O[C@H]1C(=O)CC[C@@]4(O)[C@@H](C2)N(C)CC[C@]314.Cl [Oxycodone, oxycodone HCl, reference compound] has an AUC [1, 6] of 418 ± 54 ng·h/mL, a Cmax [1, 6] of 193 ± 69 ng/mL and a Tmax [1, 6] of 30 min.

From patent publication US8962547B2 (Signature Therapeutics, Inc., priority 2011, dated 2015)
